Laboratory results published in patent US20110021565A1, “PIPERIDINE DERIVATIVES AS NK3 ANTAGONISTS” (priority 2007, published 2011).
pKi: −log10 of the molar value. Where two headings read alike, the source gives them in different places.

Target: T1, recombinant human NK3 receptor (Homo sapiens, UniProt P29371)
T1 construct: expressed in transfected cells; host or cells: HEK293 cells, transient expression; membrane preparation
T1 sequence (P29371 1-465): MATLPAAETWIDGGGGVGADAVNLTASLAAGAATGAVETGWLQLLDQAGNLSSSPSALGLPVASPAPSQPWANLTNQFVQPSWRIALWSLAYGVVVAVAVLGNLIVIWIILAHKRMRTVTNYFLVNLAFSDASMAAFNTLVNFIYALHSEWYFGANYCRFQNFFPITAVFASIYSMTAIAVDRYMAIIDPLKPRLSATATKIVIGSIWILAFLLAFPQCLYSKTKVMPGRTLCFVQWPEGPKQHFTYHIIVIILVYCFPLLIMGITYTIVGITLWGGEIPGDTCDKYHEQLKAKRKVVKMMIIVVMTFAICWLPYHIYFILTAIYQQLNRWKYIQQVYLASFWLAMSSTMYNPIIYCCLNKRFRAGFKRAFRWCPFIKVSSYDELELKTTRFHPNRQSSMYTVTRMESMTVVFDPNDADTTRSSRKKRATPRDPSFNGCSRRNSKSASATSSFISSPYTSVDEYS
Assay: [3H]SR142801 competition binding assay
Outline: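 Ki derived by Cheng-Prusoff from Hill-fitted IC50 curves, duplicates, 10 μM SB222200 defining nonspecific binding. Radioligand used at KD concentration against compound at 0.0003-10 μM; transiently transfected HEK293 membranes, 5 μg/well, 75 min room temperature, Tris-HCl/MnCl2/phosphoramidon/BSA pH 7.4. Filter-bound counts read by scintillation.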

[1] = [3H]SR142801, membranes of HEK293 cells transiently expressing recombinant human NK3 receptor, read-out: hNK3 Ki
[2] = representative compounds, [3H]SR142801, HEK293 membranes, human NK3 receptor, read-out: Ki NK3 h

pKi [1] | pKi [2] | Structure (SMILES)
8.51 | 8.51 | CCN(C1CCN(CCC(C)(C(=O)N(C)Cc2ccc(C)cc2)c2ccc(Cl)c(Cl)c2)CC1)S(C)(=O)=O (centres unmarked) [Example 77, 2-(3,4-Dichloro-phenyl)-4-[4-(ethyl-methanesulfonyl-amino)-piperidin-1-yl]-2,N-dimethyl-N-(4-methyl-benzyl)-butyramide]
8.44 | 8.44 | CCN(C1CCN(CCC(C)(C(=O)N(C)Cc2ccccc2Cl)c2ccc(Cl)c(Cl)c2)CC1)S(C)(=O)=O (centres unmarked) [Example 78, N-(2-Chloro-benzyl)-2-(3,4-dichloro-phenyl)-4-[4-(ethyl-methanesulfonyl-amino)-piperidin-1-yl]-2,N-dimethyl-butyramide]
8.52 | 8.52 | CN(Cc1ccc(C(F)(F)F)c(F)c1)C(=O)C(C)(CCN1CCC(N2CCCC2=O)CC1)c1ccc(Cl)c(Cl)c1 (centres unmarked) [Example 81, 2-(3,4-Dichloro-phenyl)-N-(3-fluoro-4-trifluoromethyl-benzyl)-2,N-dimethyl-4-[4-(2-oxo-pyrrolidin-1-yl)-piperidin-1-yl]-butyramide]
8.92 | 8.92 | CN(Cc1ccc(Cl)c(Cl)c1)C(=O)C(C)(CCN1CCC(N2CCCC2=O)CC1)c1ccc(Cl)c(Cl)c1 (centres unmarked) [Example 82, N-(3,4-Dichloro-benzyl)-2-(3,4-dichloro-phenyl)-2,N-dimethyl-4-[4-(2-oxo-pyrrolidin-1-yl)-piperidin-1-yl]-butyramide]
8.64 | 8.64 | CC(CCN1CCC(N2CCCC2=O)CC1)(C(=O)NCc1ccc(Cl)c(Cl)c1)c1ccc(Cl)c(Cl)c1 (centres unmarked) [Example 83, N-(3,4-Dichloro-benzyl)-2-(3,4-dichloro-phenyl)-2-methyl-4-[4-(2-oxo-pyrrolidin-1-yl)-piperidin-1-yl]-butyramide]
8.68 | 8.68 | CN(Cc1ccc(Cl)cc1)C(=O)C(C)(CCN1CCC(N2CCCC2=O)CC1)c1ccc(Cl)c(Cl)c1 (centres unmarked) [Example 84, N-(4-Chloro-benzyl)-2-(3,4-dichloro-phenyl)-2,N-dimethyl-4-[4-(2-oxo-pyrrolidin 1-yl)-piperidin-1-yl]-butyramide]
8.85 | 8.85 | CN(Cc1ccc(Cl)c(C(F)(F)F)c1)C(=O)C(C)(CCN1CCC(N2CCCC2=O)CC1)c1ccc(Cl)c(Cl)c1 (centres unmarked) [Example 85, N-(4-Chloro-3-trifluoromethyl-benzyl)-2-(3,4-dichloro-phenyl)-2,N-dimethyl-4-[4-(2-oxo-pyrrolidin-1-yl)-piperidin-1-yl]-butyramide]
8.85 | 8.85 | CN(Cc1ccc(F)c(C(F)(F)F)c1)C(=O)C(C)(CCN1CCC(N2CCCC2=O)CC1)c1ccc(Cl)c(Cl)c1 (centres unmarked) [Example 86, 2-(3,4-Dichlorophenyl)-N-(4-fluoro-3-trifluoromethyl-benzyl)-2,N-dimethyl-4-[4-(2-oxo-pyrrolidin-1-yl)-piperidin-1-yl]-butyramide]
8.34 | 8.34 | CN(Cc1cccc(Cl)c1)C(=O)C(C)(CCN1CCC(N2CCCC2=O)CC1)c1ccc(Cl)c(Cl)c1 (centres unmarked) [Example 87, N-(3-Chloro-benzyl)-2-(3,4-dichloro-phenyl)-2,N-dimethyl-4-[4-(2-oxo-pyrrolidin-1-yl)-piperidin-1-yl]-butyramide]
8.74 | 8.74 | CN(Cc1ccc(C(F)(F)F)cc1)C(=O)C(C)(CCN1CCC(N2CCCC2=O)CC1)c1ccc(Cl)c(Cl)c1 (centres unmarked) [Example 88, 2-(3,4-Dichloro-phenyl)-2,N-dimethyl-4-[4-(2-oxo-pyrrolidin-1-yl)-piperidin-1-yl]-N-(4-trifluoromethyl-benzyl)-butyramide]
8.28 | 8.28 | Cc1ccc(CN(C)C(=O)C(C)(CCN2CCC(N3CCCC3=O)CC2)c2ccc(Cl)c(Cl)c2)cc1 (centres unmarked) [Example 89, 2-(3,4-Dichloro-phenyl)-2,N-dimethyl-N-(4-methyl-benzyl)-4-[4-(2-oxo-pyrrolidin-1-yl)-piperidin-1-yl]-butyramide]
8.60 | 8.60 | CN(Cc1ccccc1Cl)C(=O)C(C)(CCN1CCC(N2CCCC2=O)CC1)c1ccc(Cl)c(Cl)c1 (centres unmarked) [Example 90, N-(2-Chloro-benzyl)-2-(3,4-dichloro-phenyl)-2,N-dimethyl-4-[4-(2-oxo-pyrrolidin-1-yl)-piperidin-1-yl]-butyramide]
7.29 | – | CC(NC(=O)C(C)(CCN1CCC(N2CCCC2=O)CC1)c1ccc(Cl)c(Cl)c1)c1ccccc1 (centres unmarked) [Example 91, 2-(3,4-Dichloro-phenyl)-2-methyl-4-[4-(2-oxo-pyrrolidin-1-yl)-piperidin-1-yl]-N-(1-phenyl-ethyl)-butyramide]
6.00 | – | CC(C)(NC(=O)C(C)(CCN1CCC(N2CCCC2=O)CC1)c1ccc(Cl)c(Cl)c1)c1ccccc1 (centres unmarked) [Example 92, 2-(3,4-Dichloro-phenyl)-2-methyl-N-(1-methyl-1-phenyl-ethyl)-4-[4-(2-oxo-pyrrolidin-1-yl)-piperidin-1-yl]-butyramide]
6.73 | – | CC(CCN1CCC(N2CCCC2=O)CC1)(C(=O)NC1(c2ccccc2)CC1)c1ccc(Cl)c(Cl)c1 (centres unmarked) [Example 93, 2-(3,4-Dichlorophenyl)-2-methyl-4-[4-(2-oxo-pyrrolidin-1-yl)-piperidin-1-yl]-N-(1-phenyl-cyclopropyl)-butyramide]
8.33 | 8.33 | CC(CCN1CCC(N2CCCC2=O)CC1)(C(=O)NC(c1ccccc1)C(F)(F)F)c1ccc(Cl)c(Cl)c1 (centres unmarked) [Example 95, 2-(3,4-Dichloro-phenyl)-2-methyl-4-[4-(2-oxo-pyrrolidin-1-yl)-piperidin-1-yl]-N-(2,2,2-trifluoro-1-phenyl-ethyl)-butyramide]
8.14 | 8.14 | CC(CCN1CCC(N2CCCC2=O)CC1)(C(=O)NC(c1ccc(F)cc1)C(F)(F)F)c1ccc(Cl)c(Cl)c1 (centres unmarked) [Example 96, 2-(3,4-Dichloro-phenyl)-2-methyl-4-[4-(2-oxo-pyrrolidin-1-yl)-piperidin-1-yl]-N-[2,2,2-trifluoro-1-(4-fluoro-phenyl)-ethyl]-butyramide]
8.09 | – | CC(CCN1CCC(N2CCCC2=O)CC1)(C(=O)NC(c1ccc(C(F)(F)F)cc1)C(F)(F)F)c1ccc(Cl)c(Cl)c1 (centres unmarked) [Example 97, 2-(3,4-Dichloro-phenyl)-2-methyl-4-[4-(2-oxo-pyrrolidin-1-yl)-piperidin-1-yl]-N-[2,2,2-trifluoro-1-(4-trifluoromethyl-phenyl)-ethyl]-butyramide]
8.24 | 8.24 | CC(=O)N(C)C1CCN(CCC(C)(C(=O)NCc2ccc(C(F)(F)F)c(F)c2)c2ccc(Cl)c(Cl)c2)CC1 (centres unmarked) [Example 99, 4-[4-(Acetyl-methyl-amino)-piperidin-1-yl]-2-(3,4-dichloro-phenyl)-N-(3-fluoro-4-trifluoromethyl-benzyl)-2-methyl-butyramide]
8.52 | 8.52 | CC(=O)N(C)C1CCN(CCC(C)(C(=O)N(C)Cc2ccc(Cl)c(Cl)c2)c2ccc(Cl)c(Cl)c2)CC1 (centres unmarked) [Example 100, 4-[4-(Acetyl-methyl-amino)-piperidin-1-yl]-N-(3,4-dichloro-benzyl)-2-(3,4-dichloro-phenyl)-2,N-dimethyl-butyramide]
8.17 | 8.17 | CC(=O)N(C)C1CCN(CCC(C)(C(=O)NCc2ccc(Cl)c(Cl)c2)c2ccc(Cl)c(Cl)c2)CC1 (centres unmarked) [Example 101, 4-[4-(Acetyl-methyl-amino)-piperidin-1-yl]-N-(3,4-dichloro-benzyl)-2-(3,4-dichloro-phenyl)-2-methyl-butyramide]
